Reference: ChEMBL document CHEMBL3593227, “A New Class of Potent N-Methyl-D-Aspartate Receptor Inhibitors: Sulfated Neuroactive Steroids with Lipophilic D-Ring Modifications” (J Med Chem, 2015)
Active and inactive are the calls of the source. The calls are words filed in the database; no cut-off is given here.

Columns and labels:
[1] = molecular target: T1, Glutamate NMDA receptor; GRIN1/GRIN2B (Homo sapiens, UniProt Q05586+Q13224); experiment: Inhibition of recombinant GluN1/GluN2B receptor (unknown origin) expressed in HEK293 cells assessed as inhibition of glutamate-evoked current by whole-cell voltage-clamp method; format: cell-based
[2] = molecular target: T1, Glutamate NMDA receptor; GRIN1/GRIN2B; experiment: Inhibition of recombinant GluN1/GluN2B receptor (unknown origin) expressed in HEK293 cells assessed as inhibition of glutamate-evoked current at 1 to 10 uM by whole-cell voltage-clamp method; format: cell-based
[3] = molecular target: Glutamate NMDA receptor; GRIN1/GRIN2A (Homo sapiens, UniProt Q05586+Q12879); experiment: Inhibition of recombinant GluN1/GluN2A receptor (unknown origin) expressed in HEK293 cells assessed as inhibition of glutamate-evoked current by whole-cell voltage-clamp method; format: cell-based
[4] = molecular target: Ionotropic glutamate receptor NMDA 1/2C (Homo sapiens, UniProt Q05586+Q14957); experiment: Inhibition of recombinant GluN1/GluN2C receptor (unknown origin) expressed in HEK293 cells assessed as inhibition of glutamate-evoked current by whole-cell voltage-clamp method; format: cell-based
[5] = molecular target: Ionotropic glutamate receptor NMDA 1/2D (Homo sapiens, UniProt O15399+Q05586); experiment: Inhibition of recombinant GluN1/GluN2D receptor (unknown origin) expressed in HEK293 cells assessed as inhibition of glutamate-evoked current by whole-cell voltage-clamp method; format: cell-based
Glutamate NMDA receptor = experiment: Inhibition of NMDA receptor in rat hippocampal neurons assessed as inhibition of glutamate-evoked current by whole-cell voltage-clamp method; format: tissue-based, Hippocampus
[6] = Inhibition of AMPA receptor in rat hippocampal neurons assessed as inhibition of AMPA-evoked current by whole-cell voltage-clamp method in presence of receptor desensitization inhibitor cyclothiazide; format: tissue-based; settings: Hippocampus
[7] = Inhibition of GABA receptor in rat hippocampal neurons assessed as inhibition of GABA-evoked current by whole-cell voltage-clamp method; format: tissue-based; settings: Hippocampus

Chain of Glutamate NMDA receptor; GRIN1/GRIN2A (Q12879 whole entry, other chains not shown): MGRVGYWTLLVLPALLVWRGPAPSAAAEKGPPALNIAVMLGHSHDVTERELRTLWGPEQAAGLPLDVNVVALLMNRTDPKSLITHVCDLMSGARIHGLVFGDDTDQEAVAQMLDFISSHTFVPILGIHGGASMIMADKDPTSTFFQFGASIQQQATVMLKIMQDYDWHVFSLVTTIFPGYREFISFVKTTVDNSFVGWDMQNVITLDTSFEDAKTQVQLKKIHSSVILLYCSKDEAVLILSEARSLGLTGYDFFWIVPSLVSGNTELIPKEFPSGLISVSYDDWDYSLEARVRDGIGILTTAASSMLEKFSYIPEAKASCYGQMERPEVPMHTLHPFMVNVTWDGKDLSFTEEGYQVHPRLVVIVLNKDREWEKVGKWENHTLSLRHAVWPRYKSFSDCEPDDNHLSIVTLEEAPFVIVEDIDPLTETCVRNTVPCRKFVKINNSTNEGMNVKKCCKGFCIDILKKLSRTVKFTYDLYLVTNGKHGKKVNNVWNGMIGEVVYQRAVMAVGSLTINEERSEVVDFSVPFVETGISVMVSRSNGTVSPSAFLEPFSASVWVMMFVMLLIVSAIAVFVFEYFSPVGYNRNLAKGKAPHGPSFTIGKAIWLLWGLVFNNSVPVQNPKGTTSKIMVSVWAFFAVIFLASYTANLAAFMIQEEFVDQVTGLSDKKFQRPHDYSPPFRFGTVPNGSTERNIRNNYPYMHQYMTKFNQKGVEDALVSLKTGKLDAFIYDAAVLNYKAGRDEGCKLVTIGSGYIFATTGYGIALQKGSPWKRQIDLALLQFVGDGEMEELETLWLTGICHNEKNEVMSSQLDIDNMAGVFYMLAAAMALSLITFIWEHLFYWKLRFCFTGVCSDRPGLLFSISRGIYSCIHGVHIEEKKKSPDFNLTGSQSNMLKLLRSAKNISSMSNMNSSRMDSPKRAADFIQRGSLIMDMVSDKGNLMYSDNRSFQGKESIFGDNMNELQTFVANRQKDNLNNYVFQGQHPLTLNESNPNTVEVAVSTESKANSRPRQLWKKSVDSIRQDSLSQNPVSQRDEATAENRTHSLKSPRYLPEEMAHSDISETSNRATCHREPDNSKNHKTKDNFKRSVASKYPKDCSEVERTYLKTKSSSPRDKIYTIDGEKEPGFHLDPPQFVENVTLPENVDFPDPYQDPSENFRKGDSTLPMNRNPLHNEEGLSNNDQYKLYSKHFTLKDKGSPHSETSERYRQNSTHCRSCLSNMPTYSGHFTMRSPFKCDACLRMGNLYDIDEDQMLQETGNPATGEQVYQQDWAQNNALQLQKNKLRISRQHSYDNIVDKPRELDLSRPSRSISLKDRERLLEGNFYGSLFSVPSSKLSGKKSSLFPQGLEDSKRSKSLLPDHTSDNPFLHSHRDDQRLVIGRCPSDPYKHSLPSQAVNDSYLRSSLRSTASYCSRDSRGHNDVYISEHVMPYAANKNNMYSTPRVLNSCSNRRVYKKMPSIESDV
Chain of Ionotropic glutamate receptor NMDA 1/2C (Q14957 whole entry, other chains not shown): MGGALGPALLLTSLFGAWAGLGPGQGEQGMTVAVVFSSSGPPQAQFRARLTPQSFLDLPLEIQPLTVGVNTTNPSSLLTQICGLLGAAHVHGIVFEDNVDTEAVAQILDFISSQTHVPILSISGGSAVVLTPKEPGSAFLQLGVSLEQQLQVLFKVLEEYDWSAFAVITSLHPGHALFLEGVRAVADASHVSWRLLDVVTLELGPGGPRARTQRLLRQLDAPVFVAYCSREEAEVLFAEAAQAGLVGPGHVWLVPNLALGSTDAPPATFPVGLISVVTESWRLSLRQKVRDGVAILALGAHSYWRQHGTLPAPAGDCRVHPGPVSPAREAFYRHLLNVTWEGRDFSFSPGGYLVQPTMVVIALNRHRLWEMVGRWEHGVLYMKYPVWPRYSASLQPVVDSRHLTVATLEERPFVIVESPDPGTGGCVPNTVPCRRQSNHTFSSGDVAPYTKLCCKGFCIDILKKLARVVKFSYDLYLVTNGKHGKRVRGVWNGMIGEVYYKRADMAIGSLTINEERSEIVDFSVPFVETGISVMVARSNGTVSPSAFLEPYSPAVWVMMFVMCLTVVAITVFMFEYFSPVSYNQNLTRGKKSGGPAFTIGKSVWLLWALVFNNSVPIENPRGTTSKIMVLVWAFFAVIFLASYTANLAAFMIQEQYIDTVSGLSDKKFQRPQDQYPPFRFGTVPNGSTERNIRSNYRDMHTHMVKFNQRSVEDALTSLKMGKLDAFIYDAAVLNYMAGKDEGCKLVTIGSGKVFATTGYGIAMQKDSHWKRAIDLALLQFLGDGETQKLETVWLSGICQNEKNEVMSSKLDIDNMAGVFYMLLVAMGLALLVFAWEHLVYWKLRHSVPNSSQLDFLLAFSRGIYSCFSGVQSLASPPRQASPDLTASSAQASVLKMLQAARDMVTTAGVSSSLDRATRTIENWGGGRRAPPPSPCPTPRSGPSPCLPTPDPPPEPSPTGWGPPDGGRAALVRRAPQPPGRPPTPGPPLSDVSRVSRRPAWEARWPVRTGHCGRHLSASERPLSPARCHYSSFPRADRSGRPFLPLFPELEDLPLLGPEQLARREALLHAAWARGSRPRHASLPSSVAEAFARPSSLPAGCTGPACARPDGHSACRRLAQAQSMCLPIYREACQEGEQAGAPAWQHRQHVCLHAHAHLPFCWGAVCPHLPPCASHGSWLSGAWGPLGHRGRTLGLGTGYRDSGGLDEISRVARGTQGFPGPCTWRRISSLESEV
Chain of Ionotropic glutamate receptor NMDA 1/2D (O15399 whole entry, other chains not shown): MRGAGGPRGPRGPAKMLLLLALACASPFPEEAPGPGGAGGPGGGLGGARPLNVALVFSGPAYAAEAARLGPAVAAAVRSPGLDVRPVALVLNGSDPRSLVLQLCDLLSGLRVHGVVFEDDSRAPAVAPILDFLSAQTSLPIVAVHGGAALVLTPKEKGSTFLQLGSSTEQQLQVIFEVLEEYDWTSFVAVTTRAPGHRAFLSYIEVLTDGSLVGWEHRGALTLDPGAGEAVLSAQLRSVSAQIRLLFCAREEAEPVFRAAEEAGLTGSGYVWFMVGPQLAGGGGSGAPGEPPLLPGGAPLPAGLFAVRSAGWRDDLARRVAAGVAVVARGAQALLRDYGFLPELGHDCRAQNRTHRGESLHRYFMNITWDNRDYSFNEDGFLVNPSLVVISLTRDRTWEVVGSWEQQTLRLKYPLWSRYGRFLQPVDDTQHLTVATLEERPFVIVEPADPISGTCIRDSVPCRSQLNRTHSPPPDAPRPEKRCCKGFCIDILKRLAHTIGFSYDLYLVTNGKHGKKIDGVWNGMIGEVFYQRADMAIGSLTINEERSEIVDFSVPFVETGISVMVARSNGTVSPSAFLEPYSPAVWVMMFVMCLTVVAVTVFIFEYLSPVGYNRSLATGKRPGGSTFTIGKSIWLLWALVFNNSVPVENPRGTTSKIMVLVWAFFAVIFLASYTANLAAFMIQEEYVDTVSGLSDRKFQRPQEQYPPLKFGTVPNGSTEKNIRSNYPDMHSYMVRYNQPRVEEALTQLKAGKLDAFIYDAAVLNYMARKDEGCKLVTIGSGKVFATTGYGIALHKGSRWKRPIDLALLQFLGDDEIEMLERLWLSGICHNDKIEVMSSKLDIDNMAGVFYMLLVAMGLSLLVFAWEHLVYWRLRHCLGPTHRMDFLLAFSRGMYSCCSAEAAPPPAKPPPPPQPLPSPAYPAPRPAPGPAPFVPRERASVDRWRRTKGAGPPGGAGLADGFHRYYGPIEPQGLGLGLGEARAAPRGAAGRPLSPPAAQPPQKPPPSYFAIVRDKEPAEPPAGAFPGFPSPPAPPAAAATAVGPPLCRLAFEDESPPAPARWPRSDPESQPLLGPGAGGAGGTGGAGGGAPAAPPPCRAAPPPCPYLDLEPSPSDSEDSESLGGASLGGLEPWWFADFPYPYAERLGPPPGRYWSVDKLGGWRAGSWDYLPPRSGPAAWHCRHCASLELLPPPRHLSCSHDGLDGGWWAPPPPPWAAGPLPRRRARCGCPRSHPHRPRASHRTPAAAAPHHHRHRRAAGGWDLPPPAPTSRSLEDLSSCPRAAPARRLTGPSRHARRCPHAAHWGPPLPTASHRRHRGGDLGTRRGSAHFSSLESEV

With `C=C1CC[C@H]2[C@@H]3CC[C@@H]4C[C@H](OS(=O)(=O)O)CC[C@]4(C)[C@H]3CC[C@]12C.c1ccncc1` the IC50 [1] was 1600 nM.
In the case of `C/C=C1/CC[C@H]2[C@@H]3CC[C@@H]4C[C@H](OS(=O)(=O)O)CC[C@]4(C)[C@H]3CC[C@]12C.c1ccncc1`, the IC50 [1] is reported as 800 nM.
For `C[C@]12CC[C@@H](OS(=O)(=O)O)C[C@H]1CC[C@@H]1[C@@H]2CC[C@]2(C)C=CC[C@@H]12.c1ccncc1`, the inhibition [2] was “inactive”.
`C[C@H]1CC[C@H]2[C@@H]3CC[C@@H]4C[C@H](OS(=O)(=O)O)CC[C@]4(C)[C@H]3CC[C@]12C.c1ccncc1` showed an IC50 [1] of 600 nM, an IC50 [3] of 600 nM and an IC50 [4] of 400 nM. The IC50 [5] was 500 nM, the IC50 (Glutamate NMDA receptor) was 900 nM and the IC50 [6] was 9500 nM. For the same molecule, the IC50 [7] was 1200 nM.
In the case of `CC(=O)[C@H]1CC[C@H]2[C@@H]3CC[C@@H]4C[C@H](OS(=O)(=O)O)CC[C@]4(C)[C@H]3CC[C@]12C`, the IC50 [1] is reported as 23400 nM and the inhibition [1] is reported as “Dose-dependent effect”.
Work on `C[C@@]12CCC[C@H]1[C@@H]1CC[C@@H]3C[C@H](OS(=O)(=O)O)CC[C@]3(C)[C@H]1CC2.c1ccncc1` yielded an IC50 [1] of 1200 nM.
In the case of `C[C@@H]1CC[C@@H]2[C@H]1CC[C@H]1[C@H]2CC[C@@H]2C[C@H](OS(=O)(=O)O)CC[C@@]21C.c1ccncc1`, the IC50 [1] is reported as 900 nM.
For `C[C@@]12CCC[C@H]1[C@@H]1CC[C@@H]3C[C@H](OS(=O)(=O)O)CC[C@@H]3[C@H]1CC2.c1ccncc1`, the IC50 [1] was 5400 nM.
With `C=C(C)[C@H]1CC[C@H]2[C@@H]3CC[C@@H]4C[C@H](OS(=O)(=O)O)CC[C@]4(C)[C@H]3CC[C@]12C.c1ccncc1` the IC50 [1] was 500 nM.
With `CC(C)[C@H]1CC[C@H]2[C@@H]3CC[C@@H]4C[C@H](OS(=O)(=O)O)CC[C@]4(C)[C@H]3CC[C@]12C.c1ccncc1` the IC50 [1] was 170 nM.
`CC[C@@H](C)[C@H]1CC[C@H]2[C@@H]3CC[C@@H]4C[C@H](OS(=O)(=O)O)CC[C@]4(C)[C@H]3CC[C@]12C.c1ccncc1` gave an IC50 [1] of 90 nM.
For `C[C@]12CC[C@@H](OS(=O)(=O)O)C[C@H]1CC[C@@H]1[C@@H]2CC[C@@]2(C)[C@H]1CCC2(F)F.c1ccncc1`, the IC50 [1] was 7000 nM.
For `C[C@@]12CCCC[C@H]1[C@@H]1CC[C@@H]3C[C@H](OS(=O)(=O)O)CC[C@]3(C)[C@H]1CC2.c1ccncc1`, the IC50 [1] was 1100 nM.
In the case of `C[C@]12CC[C@@H](OS(=O)(=O)O)C[C@H]1CC[C@@H]1[C@@H]2CC[C@]2(C)[C@@H](I)CC[C@@H]12.c1ccncc1`, the IC50 [1] is reported as 600 nM.
With `CC[C@H]1CC[C@H]2[C@@H]3CC[C@@H]4C[C@H](OS(=O)(=O)O)CC[C@]4(C)[C@H]3CC[C@]12C.c1ccncc1` the IC50 [1] was 400 nM.
Work on `C=C1C[C@H]2[C@@H]3CC[C@@H]4C[C@H](OS(=O)(=O)O)CC[C@]4(C)[C@H]3CC[C@]2(C)C1.c1ccncc1` yielded an IC50 [1] of 2200 nM.
In the case of `C[C@H]1CC[C@@H]2[C@@H]1CC[C@H]1[C@H]2CC[C@@H]2C[C@H](OS(=O)(=O)O)CC[C@@]21C.c1ccncc1`, the IC50 [1] is reported as 700 nM.
